Source: patent US11905230B2, “Phenoxyacetic acid derivatives, preparation method thereof and use thereof as medicament” (CHINA PHARMACEUTICAL UNIVERSITY, priority 2017, dated 2024)

How the values were obtained:
hGPR40 receptor = hGPR40 receptor (Homo sapiens (Human), UniProt O14842); assay: agonistic activity on hGPR40-CHO stably transfected cells (Fluo-4 / FLIPR); format: cell-based; settings: for activation at 0.1 µM / Agonistic activity at 100 nM (%): 100 nM, relative to linoleic acid well; for EC50: mean ± SD of three determinations
Chain of hGPR40 receptor (O14842 whole entry): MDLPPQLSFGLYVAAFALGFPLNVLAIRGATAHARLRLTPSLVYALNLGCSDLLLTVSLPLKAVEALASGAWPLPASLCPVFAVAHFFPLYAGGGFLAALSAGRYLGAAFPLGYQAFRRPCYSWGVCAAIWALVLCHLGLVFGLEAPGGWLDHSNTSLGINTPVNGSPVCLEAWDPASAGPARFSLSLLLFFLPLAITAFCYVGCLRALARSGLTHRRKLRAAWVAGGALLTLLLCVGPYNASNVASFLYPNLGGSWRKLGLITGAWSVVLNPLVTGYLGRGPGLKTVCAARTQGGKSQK
Protocol: Experimental example 1 The agonistic activity of the compounds of the present invention on hGPR40-CHO stably transfected cells
The present invention used the following method to determine the GPR40 agonistic activity of the compounds of the invention:
hGPR40-CHO stably transfected cells were seeded into a 96-well plate at a density of 3×10^4/well, and incubated overnight in a 37° C., 5% CO2 cell incubator; the medium was discarded, 100 μl of HBSS was added to each well, and 100 μl of Fluo-4 dye solution containing Probenecid was added and incubated at 37° C. for 90 min. After the incubation, the Fluo-4 dye solution was sucked out, 100 μl of HBSS buffer was added, and the dye was washed away; 100 μl of HBSS containing Probenecid was added to each well, and incubated at 37° C. for 10 min; different concentrations of drugs were added to each well of the 96-well plate and FLIPR (Molecular Devices) was used for readings according to the parameter setting table. The experimental results were analyzed.

normal mice = assay: Oral glucose tolerance test (OGTT) in normal mice; format: in vivo, Kunming mice; settings: for blood glucose level at 15 min / blood glucose level at 0 min / blood glucose level at 30 min / blood glucose level at 60 min / blood glucose level at 120 min: 20 mg/kg by gavage, in mmol/L (unit assumed); for blood glucose level at 15 min: 15 min after glucose load; for blood glucose level at 0 min: 30 min after dosing, before glucose load; for blood glucose level at 30 min: 30 min after glucose load; for blood glucose level at 60 min: 60 min after glucose load; for blood glucose level at 120 min: 120 min after glucose load
Protocol: Experimental example 2 In vivo hypoglycemic activity of the compounds of the present invention can be determined by using an assay system as described below:
The mice were fasted for 12 hours before experiment and water was taken freely, each group was administrated by gavage, blood was taken from the tail, and the blood glucose level was measured (recorded as −30 min).

[1] = Evaluation of hepatotoxicity: serum ALT, AST and TBIL after 4 weeks of dosing; format: in vivo; settings: for ALT (IU/L) / AST (IU/L) / TBIL (IU/L): serum, once a day for consecutive 4 weeks, x ± SD, n = 6
Protocol: Experimental example 3 Evaluation of hepatotoxicity of the compounds of the present invention:
The test compounds were administered once a day for consecutive 4 weeks, blood was taken, and the contents of alanine aminotransferase (ALT), aspartate aminotransferase (AST), and total bilirubin (TBIL) were measured.

**Q.** Which activation at 0.1 µM (hGPR40 receptor) does the source give for `CC(C)c1ccccc1-c1cccc(CNc2ccc(OCC(=O)O)c(F)c2)c1` [Compound I-16] here?
**A.** 63%

**Q.** For `CCOc1cc(C)c(-c2cccc(CNc3ccc(OCC(=O)O)cc3)c2)c(C)c1` [Compound I-17, 2-(4-((4′-ethoxy-2′,6′-dimethyl-[1,1′-biphenyl]-3-methylene)amino)phenoxy)acetic acid], which “Agonistic activity at 100 nM (%)” value (hGPR40 receptor) is on record?
**A.** 70%

**Q.** What does the source list for `COc1ccc(-c2cccc(CNc3ccc(OCC(=O)O)c(F)c3)c2)c(C)c1` [Compound I-19]?
**A.** blood glucose level at 15 min (normal mice; OGTT, n = 8): 9.08 ± 0.62; blood glucose level at 0 min (normal mice; OGTT, n = 8): 4.45 ± 0.56; blood glucose level at 30 min (normal mice; OGTT, n = 8): 8.21 ± 0.39; blood glucose level at 60 min (normal mice; OGTT, n = 8): 5.23 ± 0.21; blood glucose level at 120 min (normal mice; OGTT, n = 8): 4.41 ± 0.44; ALT (IU/L) [1]: 50.33 ± 4.6 IU/L; AST (IU/L) [1]: 123.45 ± 7.8 IU/L; TBIL (IU/L) [1]: 2.68 ± 0.3 IU/L; activation at 0.1 µM (hGPR40 receptor): 80%; EC50 (hGPR40 receptor): 18.4 ± 2.2 nM

**Q.** With `COc1cc(C)c(-c2cccc(CNc3ccc(OCC(=O)O)c(F)c3)c2)c(C)c1` [Compound I-20, 2-(4-((4′-methoxy-2′,6′-dimethyl-[1,1′-biphenyl]-3-methylene)amino)-2-fluorophenoxy)acetic acid] as the molecule, how does the activation at 0.1 µM (hGPR40 receptor) read?
**A.** 68%

**Q.** What does the source list for `O=C(O)COc1ccc(NCc2cccc(-c3ccccc3C(F)(F)F)c2)cc1` [Compound I-28, 2-(4-((2′-trifluoromethyl-[1,1′-biphenyl]-3-methylene)amino)phenoxy)acetic acid]?
**A.** effect on oral glucose tolerance in mice (in words) (normal mice; OGTT in normal mice, 20 mg/kg): significantly improve oral glucose tolerance; blood glucose level at 15 min (normal mice; OGTT, n = 8): 8.59 ± 0.38; blood glucose level at 0 min (normal mice; OGTT, n = 8): 4.56 ± 0.48; blood glucose level at 30 min (normal mice; OGTT, n = 8): 7.43 ± 0.56; blood glucose level at 60 min (normal mice; OGTT, n = 8): 5.30 ± 0.26; blood glucose level at 120 min (normal mice; OGTT, n = 8): 4.21 ± 0.45; blood glucose level at −30 min (normal mice; OGTT, fasted mice, before dosing, x ± SD, n = 8): 4.35 ± 0.36; ALT (IU/L) [1]: 49.36 ± 7.8 IU/L; AST (IU/L) [1]: 119.68 ± 7.3 IU/L; TBIL (IU/L) [1]: 2.57 ± 0.5 IU/L; Agonistic activity at 100 nM (%) (hGPR40 receptor): 81%; EC50 (hGPR40 receptor): 17.9 ± 2.9 nM

**Q.** With `Cc1cc(OC(F)(F)F)cc(C)c1-c1cccc(CNc2ccc(OCC(=O)O)cc2)c1` [Compound I-29, 2-(4-((4′-trifluoromethoxy-2′,6′-dimethyl-[1,1′-biphenyl]-3-methylene)amino)phenoxy)acetic acid] as the molecule, how does the “Agonistic activity at 100 nM (%)” value (hGPR40 receptor) read?
**A.** 62%

**Q.** For `Cc1cc(OC(F)(F)F)ccc1-c1cccc(CNc2ccc(OCC(=O)O)cc2)c1` [Compound I-30, 2-(4-((4′-trifluoromethoxy-2′-methyl-[1,1′-biphenyl]-3-methylene)amino)phenoxy)acetic acid], which “Agonistic activity at 100 nM (%)” value (hGPR40 receptor) is on record?
**A.** 76%

**Q.** Which activation at 0.1 µM (hGPR40 receptor) does the source give for `CCOc1ccc(-c2cccc(CNc3ccc(OCC(=O)O)cc3)c2)c(C)c1` [Compound I-31] here?
**A.** 79%

**Q.** Which melting point does the source give for `CCCCCCOc1cc(C)c(-c2cccc(CNc3ccc(OCC(=O)O)c(F)c3)c2)c(C)c1` [Compound I-42, 2(2-fluoro-4-(((4′-(hexyloxy)-2′,6′-dimethyl-[1,1′-biphenyl]-3-yl)methyl)amino)phenoxy)acetic acid] here?
**A.** 132 to 135 °C

**Q.** With `CCCCCCOc1cc(C)c(-c2cccc(CNc3ccc(OCC(=O)O)cc3)c2)c(C)c1` [Compound I-43, 2(4-(((4′-(hexyloxy)-2′,6′-dimethyl-[1,1′-biphenyl]-3-yl)methyl)amino)phenoxy)acetic acid] as the molecule, how does the melting point read?
**A.** 130 to 132 °C

**Q.** With `Cc1cc(OC2CCCCC2)cc(C)c1-c1cccc(CNc2ccc(OCC(=O)O)c(F)c2)c1` [Compound I-44, 2(2-fluoro-4-(((4′-(cyclohexyloxy)-2′,6′-dimethyl-[1,1′-biphenyl]-3-yl)methyl)amino)phenoxy)acetic acid] as the molecule, how does the melting point read?
**A.** 136 to 138 °C

**Q.** Which results are given for `Cc1cc(OCCCS(C)(=O)=O)cc(C)c1-c1cccc(COc2ccc3c(c2)OC[C@H]3CC(=O)O)c1` [TAK-875, reference compound]?
**A.** blood glucose level at 15 min (normal mice; OGTT, n = 8): 9.68 ± 0.46; blood glucose level at 0 min (normal mice; OGTT, n = 8): 4.53 ± 0.25; blood glucose level at 30 min (normal mice; OGTT, n = 8): 8.61 ± 0.45; blood glucose level at 60 min (normal mice; OGTT, n = 8): 5.47 ± 0.56; blood glucose level at 120 min (normal mice; OGTT, n = 8): 4.46 ± 0.57; AST, ALT and TBIL compared with STZ (blank) group (in words) ([1]; 4 weeks of dosing): AST was higher than STZ group; ALT (IU/L) [1]: 72.83 ± 8.4 IU/L; AST (IU/L) [1]: 149.33 ± 15.6 IU/L; TBIL (IU/L) [1]: 2.98 ± 0.4 IU/L; Agonistic activity at 100 nM (%) (hGPR40 receptor): 65%
